The values that follow are results of earlier work, collected in US20110064803A1, “NANOPARTICULATE AND CONTROLLED RELEASE COMPOSITIONS COMPRISING VITAMIN K2” (ELAN PHARMA INTERNATIONAL LIMITED., priority 2005, published 2011).

Where two headings read alike, the source gives them in different places.

Assay in data set [1]: not given
This is another data set of the same source.

The conditions of data set [2]: oral.

With `CC(C)=CCC/C(C)=C/CC/C(C)=C/CC/C(C)=C/CC1=C(C)C(=O)c2ccccc2C1=O` [Vitamin K2], where the note is “ethanol (99.5)”, the “Solubility in ethanol (99.5)” value is on record as “soluble”. Moreover, the Solubility in hexane entry (hexane) is given as “very soluble”. Also, the Solubility in methanol entry (methanol) is on record as “slightly soluble”. Under “water”, the Solubility in water result is on record as “practically insoluble”. Further, the Stability to light result in data set [1] was “decomposes and the color becomes more intense by light”.

Take `COC(=O)C(c1ccccc1)C1CCCCN1` (stereo not drawn) [methylphenidate, α-phenyl-2-piperidine acetic acid methyl ester]: the “Persistence of drug effects” value is 3 to 6 h in data set [2] (conventional IR tablets) and “up to 8 hours” in data set [2] (extended release formulations).
